Reference: patent US20250345492A1, “AN ANTIBACTERIAL POLYPEPTIDE COMPOUND, A MEDICAL DEVICE, HYDROGEL AND USE THEREOF” (priority 2020, published 2025)
Ends that are not written are not given here.

Columns and labels:
[1] = system: Bacillus subtilis (ATCC 23857); settings: standard strain
Procedure, shortened: (§1)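 Log-phase cells grown in MH (bacteria) or SD (fungi) medium at 37 °C were plated at 1×10^5 CFU/ml with 2-fold serially diluted peptide (1-256 μM solutions added at twice final concentration). After 12 h at 37 °C, MIC was taken as the first clear well by eye, in triplicate.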

C. albicans ATCC14053 = settings: fungus
Procedure, shortened: as §1

C. glabrata ATCC22019 = settings: fungus
Procedure, shortened: as §1

C. krusei ATCC6258 = settings: fungus
Procedure, shortened: as §1

C. parapsilosis ATCC2001 = settings: fungus
Procedure, shortened: as §1

C. tropicalis ATCC750 = settings: fungus
Procedure, shortened: as §1

[2] = system: Cronobacter sakazakii (ATCC 29544); settings: standard strain
Procedure, shortened: as §1

[3] = system: E-1b, clinical isolated drug-resistant strain ESBL; settings: strain E-1b (ESBL)
Procedure, shortened: as §1

[4] = system: E-2b, clinical isolated drug-resistant strain ESBL; settings: strain E-2b (ESBL)
Procedure, shortened: as §1

[5] = system: E-3b, clinical isolated drug-resistant strain ESBL; settings: strain E-3b (ESBL)
Procedure, shortened: as §1

[6] = system: E-4b, clinical isolated drug-resistant strain ESBL; settings: strain E-4b (ESBL)
Procedure, shortened: as §1

[7] = system: E-5b, clinical isolated drug-resistant strain ESBL; settings: strain E-5b (ESBL)
Procedure, shortened: as §1

E. coli (ATCC 25922) = settings: standard strain
Procedure, shortened: as §1

[8] = system: P-1c, clinical isolated drug-resistant strain PA; settings: strain P-1c (PA)
Procedure, shortened: as §1

[9] = system: P-2c, clinical isolated drug-resistant strain PA; settings: strain P-2c (PA)
Procedure, shortened: as §1

[10] = system: P-3c, clinical isolated drug-resistant strain PA; settings: strain P-3c (PA)
Procedure, shortened: as §1

[11] = system: P-4c, clinical isolated drug-resistant strain PA; settings: strain P-4c (PA)
Procedure, shortened: as §1

[12] = system: P-5c, clinical isolated drug-resistant strain PA; settings: strain P-5c (PA)
Procedure, shortened: as §1

[13] = system: Pseudomonas aeruginosa (ATCC 27853); settings: standard strain
Procedure, shortened: as §1

[14] = system: S-1a, clinical isolated drug-resistant strain MRSA; settings: strain S-1a (MRSA)
Procedure, shortened: as §1

[15] = system: S-2a, clinical isolated drug-resistant strain MRSA; settings: strain S-2a (MRSA)
Procedure, shortened: as §1

[16] = system: S-3a, clinical isolated drug-resistant strain MRSA; settings: strain S-3a (MRSA)
Procedure, shortened: as §1

[17] = system: S-4a, clinical isolated drug-resistant strain MRSA; settings: strain S-4a (MRSA)
Procedure, shortened: as §1

[18] = system: Staphylococcus aureus (ATCC 29213); settings: standard strain
Procedure, shortened: as §1

[19] = system: Staphylococcus epidermidis (ATCC 12228); settings: standard strain
Procedure, shortened: as §1

[20] = system: E. coli ML-35 (ATCC 43837); experiment: Inner membrane permeability, ONPG / β-galactosidase release; type: cell-based; settings: 1×MIC to 8×MIC, 90 min
Description: The effect on the integrity of bacterial […] was determined by determining the release amount of β-galactosidase from E. coli ML-35 (ATCC 43837) with ONPG (o-nitrobenzene-β-D-galactoside), thereby detecting the effect of the compounds on the permeability of E. coli IM.
Taking compounds 2, 8, 9, 13 and 15 of the present invention as examples, the IM permeability of E. coli with the presence of the antibacterial polypeptide compounds was analyzed. E. coli ML-35 cells were washed twice with PBS solution and resuspended in 0.9% sodium chloride solution. […] The cells were detected at 420 nm once every 5 mins using a multifunctional ELISA reader within a 90-min period of time.

| Substance | MIC B. subtilis ATCC23857 [1] [µM] | MIC C. albicans ATCC14053 (C. albicans ATCC14053) [µM] | MIC C. glabrata ATCC22019 (C. glabrata ATCC22019) [µM] | MIC C. krusei ATCC6258 (C. krusei ATCC6258) [µM] | MIC C. parapsilosis ATCC2001 (C. parapsilosis ATCC2001) [µM] | MIC C. tropicalis ATCC750 (C. tropicalis ATCC750) [µM] | MIC C. sakazakii ATCC29544 [2] [µM] | MIC [3] [µM] | MIC [4] [µM] | MIC [5] [µM] | MIC [6] [µM] | MIC [7] [µM] | MIC C. coli ATCC25922 (E. coli (ATCC 25922)) [µM] | MIC [8] [µM] | MIC [9] [µM] | MIC [10] [µM] | MIC [11] [µM] | MIC [12] [µM] | MIC P. aerugmosa ATCC27853 [13] [µM] | MIC [14] [µM] | further results |
| --- | --- | --- | --- | --- | --- | --- | --- | --- | --- | --- | --- | --- | --- | --- | --- | --- | --- | --- | --- | --- | --- |
| Pro-Phe-Lys-Leu-Ser-Leu-His-Leu-NH2 (PFKLSLHL-NH2) [Compound J-1, reference compound] | 32 | 64 | 64 | 32 | 32 | 16 | 64 | 32 | 32 | 32 | 32 | 32 | 32 | 32 | 32 | 32 | 32 | 32 | 32 | 128 | MIC [15]: 128 µM; MIC [16]: 128 µM; MIC [17]: 128 µM; MIC S. aureus ATCC29213 [18]: 128 µM; MIC S. epidermidis ATCC12228 [19]: 64 µM; IM permeability of E. coli [20]: destroying the integrity of the E. coli IM in a dose-dependent manner |
| Pro-Trp-Orn-Leu-Orn-Leu-His-Leu-NH2 (PWXLXLHL; HELM PEPTIDE1{P.W.[Orn].L.[Orn].L.H.L.[am]}$$$$V2.0; N-terminus assumed; SMILES CC(C)C[C@H](NC(=O)[C@H](Cc1c[nH]cn1)NC(=O)[C@H](CC(C)C)NC(=O)[C@H](CCCN)NC(=O)[C@H](CC(C)C)NC(=O)[C@H](CCCN)NC(=O)[C@H](Cc1c[nH]c2ccccc12)NC(=O)[C@@H]1CCCN1)C(N)=O) [Compound 9] | 16 | 32 | 16 | 64 | 16 | 16 | 16 | 8 | 8 | 8 | 8 | 8 | 8 | 8 | 8 | 8 | 8 | 8 | 8 | 64 | MIC [15]: 64 µM; MIC [16]: 64 µM; MIC [17]: 64 µM; MIC S. aureus ATCC29213 [18]: 64 µM; MIC S. epidermidis ATCC12228 [19]: 32 µM; IM permeability of E. coli [20]: destroying the integrity of the E. coli IM in a dose-dependent manner |
